Experimental data: patent publication US6384045B1, “Tricyclic and tetracyclic pyrones” (Kansas State University Research Foundation, priority 1997, dated 2002)
“Also recorded” adds a separate entry of the source.

Legend:
[1] = system: T1, liver and intestinal microsomal ACAT; experiment: Inhibition of liver and intestinal microsomal ACAT activity; assay type: biochemical
T1 construct: other: 100 μM; other: 44 nM; other: 50 μM
Method: . Microsomes were prepared from liver and intestinal mucosal scrapings by sequential centrifugation and in vitro ACAT activity assays were done according to the method of Billheimer (Billheimer, J. T. (1985), “Cholesterol acyltransferase,” In Methods in Enzymology 111:286-293). Briefly, 100 μg microsomal protein, 22 μg BSA, and 52 nmol cholesterol and the synthesized drug in 5 μL DMSO were preincubated for 30 minutes at 37° C. in a phosphate buffer (200 μL total volume). After 30 minutes, 1 nmol [^14C]oleoyl-CoA was added as substrate and incubated for an additional 20 minutes. The reaction was stopped with the addition of 1 mL ethanol and lipids were extracted with hexane. Cholesteryl [^14C]oleate formation was quantified by thin-layer chromatography and data are expressed as percent inhibition of ACAT activity (pmol/μg protein per minute) compared to a control sample incubated with no drug. All samples were run in duplicate. […]

[2] = system: L1210 lymphoblastic leukemia cells; experiment: Inhibition of L1210 tumor cell growth in vitro (Coulter counter); assay type: cell-based, Murine; conditions: for inhibition of L1210 cell growth (% reduction of control cell numbers): 50 μM, 3 and 4 days in culture; for reduction of L1210 cell numbers vs control: 0.78 μM
Method: Cells were plated at an initial density of 1×10^4 cells/0.5 ml/well in RPMI 1640 medium, containing 7.5% fortified bovine calf serum, and grown at 37° C. for 4 days in a humidified incubator in 5% CO2 in air. Cells were incubated in the presence or absence (^•, control) of 50 μM 3A (▪), 2D & 2E (□),3D & 3E (▴), 2B & 2C (Δ) 2A (♦), 3B & 3C (⋄), or 10 μM CPT (∘) and their density was monitored in triplicate every 24 h using a Coulter counter. Cells numbers are plotted on a logarithmic scale.
(§1) All solutions of tricyclic pyrone analogs were dissolved and diluted in 100% ethanol (ETOH), whereas CPT (Sigma Chemical Co., St. Louis, Mo.) solutions were prepared in 100% dimethyl sulfoxide (DMSO). Murine L1210 lymphoblastic leukemia cells, obtained from the American Type Culture Collection (Rockville, Md.), were maintained in continuous exponential growth by twice-a-week passage in RPMI 1640 medium supplemented with 7.5% fortified bovine calf serum (HyClone Laboratories, Inc., Logan, Utah). The cultures were incubated at 37° C. in a humidified atmosphere containing 5% CO2. All drugs were supplemented to the culture medium in 1- or 2 μl aliquots. The concentration of vehicle in the final incubation volume never exceeded 0.2-0.4%. […] Control cells incubated in the absence of drugs were similarly treated with vehicle only and, in every experiment, all incubates received the same volume of solvent.
For tumor cell growth, L1210 cells were resuspended in fresh serum-containing RPMI 1640 medium, plated at an initial density of 1×10^4 cells/0.5 ml, and incubated in 48-well Costar cell culture plates (Costar, Cambridge, Mass.). Cells were grown for 4 days in the presence or absence of drugs and their density was monitored every 24 h using a Coulter counter (Coulter Electronics, Ltd., Luton Beds, England). Data of all in vitro experiments were analyzed using Student's t-test with the level of significance set at P<0.05.

[3] = system: L1210 lymphoblastic leukemia cells; experiment: Inhibition of DNA synthesis (3H-thymidine incorporation) in L1210 cells in vitro; assay type: cell-based, Murine
Method: FIG. 1 illustrates a comparison of the effects of four new tricyclic pyrone derivatives and CPT on DNA synthesis in L1210 cells in vitro. About 2.53×10^6 cells suspended in 0.5 ml of RPMI 1640 medium were incubated at 37° C. for 90 minutes in the presence or absence (control) of the indicated concentrations of drugs. The cells were then pulse-labeled for an additional 30 minutes to determine the rate of ^3H-thymidine incorporation into DNA. DNA synthesis in vehicle-treated control cells was 43,956±4,569 cpm (100±11%). The blank value (1,241±99 cpm) for cells pulse-labeled for 0 minutes with 1 μCi of ^3H-thymidine has been subtracted from the results. Bars: means±SD (n=3).
as §1
For DNA synthesis, L1210 cells were resuspended in fresh serum-free RPMI 1640 medium at a density of about 2.5×10^6 cells/0.5 ml. The cells were incubated at 37° C. for 90 min in the presence or absence of drugs and then pulse-labeled for an additional 30 min with 1 μCi of [methyl-^3H]thymidine (51 Ci/mmol; Amersham Corp., Arlington Heights, Ill.). The incubations were terminated by the addition of 0.5 ml of 10% trichloroacetic acid (TCA). After holding on ice for 15 min, the acid-insoluble material was recovered over Whatman GF/A glass microfibre filters and washed thrice with 2 ml of 5% TCA and twice with 2 ml of 100% EtOH. After drying the filters, the radioactivity bound to the acid-precipitable material was determined by liquid scintillation counting in 10 ml of Bio-Safe NA (Research Products International Corp., Mount Prospect, Ill.).

[4] = target: acetylcholinesterase (AChE) (UniProt O42275); assay type: biochemical, electric eel; fetal bovine serum; conditions: read-out: AChE inhibition constant Ki ± std. error; 30° C., pH 8.0
acetylcholinesterase (AChE), sequence (O42275 whole entry): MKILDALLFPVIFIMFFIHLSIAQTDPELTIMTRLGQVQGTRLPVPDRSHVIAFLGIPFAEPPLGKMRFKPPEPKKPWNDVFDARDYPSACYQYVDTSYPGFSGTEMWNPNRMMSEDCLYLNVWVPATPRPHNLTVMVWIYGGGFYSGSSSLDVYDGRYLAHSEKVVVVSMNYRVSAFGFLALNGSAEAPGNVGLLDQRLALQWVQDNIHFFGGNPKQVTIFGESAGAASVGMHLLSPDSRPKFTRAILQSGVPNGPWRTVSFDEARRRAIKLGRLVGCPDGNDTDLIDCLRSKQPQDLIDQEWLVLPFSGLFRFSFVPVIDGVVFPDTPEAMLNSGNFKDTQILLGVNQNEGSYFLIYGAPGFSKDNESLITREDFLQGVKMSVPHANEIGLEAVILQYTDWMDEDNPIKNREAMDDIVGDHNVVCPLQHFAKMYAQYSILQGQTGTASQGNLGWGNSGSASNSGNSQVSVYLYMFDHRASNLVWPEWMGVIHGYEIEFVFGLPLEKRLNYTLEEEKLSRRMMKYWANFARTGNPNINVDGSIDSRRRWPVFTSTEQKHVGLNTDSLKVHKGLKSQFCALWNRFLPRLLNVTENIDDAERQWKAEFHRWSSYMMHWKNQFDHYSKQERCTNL
Method: Acetylcholinesterase Assay and Inhibition Kinetics: Tricyclic pyrones of this invention were tested for inhibition of AChE. […] Reactions were carried out at 30° C. in 0.1 M sodium phosphate buffer at pH 8.0 in the presence of […] and 3.3×10^−4 M 3-carboxy-4-nitrophenyl disulfide. Aliquots of incubating mixtures containing enzyme alone, or enzyme in the presence of each carbamate, were withdrawn at selected time intervals and assayed for enzyme activity in order to obtain kinetic data. From the kinetic data, inhibition and bimolecular rate constants were calculated by the equation: [formula]
in which kapp is the pseudo-first-order rate constant.

[5] = 50 μM, 90 min + 30 min pulse, 50 µM

Row | Compound | % Inhibition of ACAT ([1]; 50 μM) [%] | % Inhibition of ACAT ([1]; 100 μM) [%] | Ki [4] [µM] | further results
1 | O=c1oc(-c2cccnc2)cc2c1[C@@H](O)[C@@]1(O)CCCC[C@@H]1O2 (relative stereo) [Compound 38B, (5aS*,9aR*,10R*)-9a,10-Dihydroxy-3-(3-pyridyl)-1H-5a,6,7,8,9,9a,10-heptahydro-1-oxopyrano[4,3-b][1]benzopyran] | 9.7 | 11.4 |  | 
2 | CC12Oc3cc(-c4cccnc4)oc(=O)c3C=C1CCCC2O (stereo not drawn) [2B & 2C, cis- and trans-3-(3-pyridyl)-5a-methyl-6-hydroxy-1H-5a,6,7,8,9-pentahydro-1-oxopyrano[4,3-b]benzopyran] |  |  |  | inhibition of L1210 cell growth (% reduction of control cell numbers) [2]: cannot inhibit the growth
3 | CC12Oc3cc(-c4cccnc4)oc(=O)c3C=C1CCCC2OC=O (stereo not drawn) [2D & 2E, cis- and trans-3-(3-pyridyl)-5a-methyl-6-formyloxy-1H-5a,6,7,8,9-pentahydro-1-oxopyrano[4,3-b]benzopyran] |  |  |  | inhibition of L1210 cell growth (% reduction of control cell numbers) [2]: cannot inhibit the growth; inhibition of DNA synthesis in L1210 cells ([3]; 25 μM, 90 min + 30 min pulse): no significant effects; inhibition of DNA synthesis in L1210 cells [3, 5]: 49%
4 | CCCCCCCC[C@H](SCCCCCC)C(=O)Nc1c(SC)cc(C)nc1SC [CP-113,818, reference compound] |  |  |  | % Inhibition of ACAT ([1]; 44 nM): 42.5%
5 | CC[C@@]1(O)C(=O)OCc2c1cc1n(c2=O)Cc2cc3ccccc3nc2-1 [CPT, 20(S)-camptothecin (CPT), reference compound] |  |  |  | reduction of L1210 cell numbers vs control ([2]; 1 day): 46%; reduction of L1210 cell numbers vs control ([2]; 2 days): 85%; reduction of L1210 cell numbers vs control ([2]; 3 days): 97%; reduction of L1210 cell numbers vs control ([2]; 4 days): 99%; IC50 ([3]; Mus musculus, L1210, 2 h, read-out: concentration that inhibits DNA synthesis by 50% (IC50)): ~0.65 µM
6 | Cc1cc2c(c(=O)o1)C=C1CCCCC1O2 (stereo not drawn) [Compound 1A, 3-methyl-1H-5a,6,7,8,9-pentahydro-1-oxopyrano[4,3-b]-[i]benzopyran] |  |  | 7 ± 1.2 | inhibition at 50 µM ([3]; Mus musculus, L1210, 50 μM, 90 min + 30 min pulse): 17 to 32%
7 | Cc1cc2c(c(=O)o1)C=C1CCC[C@H](O)[C@@]1(C)O2 [Compound 1B, cis-3-5a-dimethyl-6-hydroxy-1H-5a,6,7,8,9-pentahydro-1-oxopyrano[4,3-b][1]benzopyran] |  |  | 20 ± 5.8 | 
8 | Cc1cc2c(c(=O)o1)C=C1CCCC(OC=O)C1(C)O2 (stereo not drawn) [Compound 1D, cis-3-5-a-dimethyl-6-formyloxy-1H-5a,6,7,8,9-pentahydro-1-oxopyrano[4,3-b][1]benzopyran] |  |  | 5 ± 1.7 | IC50 ([1]; using literature IC50 of pyripyropene as standard): 52 µM
9 | CC12Oc3cc(-c4cccnc4)oc(=O)c3C=C1CCCC2O (stereo not drawn) [Compound 2B, cis-3-(3-pyridyl)-5a-methyl-6-hydroxy-1H-5a,6,7,8,9-pentahydro-1-oxopyrano[4,3-b][1]benzopyran] |  |  | 8 ± 2.3 | 
10 | CC12Oc3cc(-c4cccnc4)oc(=O)c3C=C1CCCC2OC=O (stereo not drawn) [Compound 2D, cis-3-(3-pyridyl)-5a-methyl-6-formyloxy-1H-5a,6,7,8,9-pentahydro-1-oxopyrano[4,3-b][1]benzopyran] |  |  | 26 ± 2.3 | 
11 | COc1ccc(-c2cc3c(c(=O)o2)C=C2CCCC(O)C2(C)O3)cc1OC (stereo not drawn) [Compound 3B, cis-3-(3,4-dimethoxyphenyl)-5a-methyl-6-hydroxy-1H-5a,6,7,8,9-pentahydro-1-oxopyrano[4,3-b][1]benzopyran] |  |  | 4 ± 0.6 | 
12 | COc1ccc(-c2cc3c(c(=O)o2)C=C2CCCC(OC=O)C2(C)O3)cc1OC (stereo not drawn) [Compound 3D, cis-3-(3,4-Dimethoxyphenyl)-6-formyloxy-5a-methyl-1H-5a,6,7,8,9-pentahydro-1-oxopyrano[4,3-B][1]benzopyran] |  |  | 15 ± 5.8 | 
13 | O=c1occc2nc3c(cc12)CCCC3 [Compound 24, 1H-6,7,8,9-tetrahydro-1-oxopyrano[4,3-b]quinoline] | 1.9 | 3.3 |  | 
14 | Cc1cc2ncc3c(c2c(=O)o1)CCCC3 [Compound 26, 1H-3-methyl-7,8,9,10-tetrahydropyrano[4,3-c]isoquinolin-1-one] | 2.7 | 13.7 |  | 
15 | C=C(C)[C@H]1CCC2=Cc3c(cc(C)oc3=O)O[C@H]2C1 [Compound 28, (5aS,7S)-7-Isopropenyl-3-methyl-1H-5a,6,7,8,9-pentahydro-1-oxopyrano[4,3-b][1]benzopyran] | 17 | 30 |  | 
16 | C=C(C)[C@H]1CCC2=Cc3c(cc(-c4cccnc4)oc3=O)O[C@H]2C1 [Compound 29, (5aS,7S)-7-Isopropenyl-3-(3-pyridyl)-1H-5a,6,7,8,9-pentahydro-1-oxopyrano[4,3-b][1]benzopyran] | 21 | 39 |  | 
17 | C=C(C)[C@H]1CCC2=Cc3c(cc(-c4ccc(OC)c(OC)c4)oc3=O)OC2C1 (stereo partly drawn) [Compound 30, (5aS,7S)-7-Isopropenyl-3-(3,4-dimethoxyphenyl)-1H-5a,6,7,8,9-pentahydro-1-oxopyrano[4,3-b][1]benzopyran] | 13.3 | 21.9 |  | 
18 | O=C(O)Cc1cc2c(c(=O)o1)C=C1CCCCC1O2 (stereo not drawn) [Compound 32, 3-(Carboxymethyl)-1H-5a,6,7,8,9-pentahydro-1-oxopyrano[4,3-b][1]benzopyran] | 10.3 | 7.9 |  | 
19 | O=C(CCCCC(=O)Cc1cc2c(c(=O)o1)C=C1CCCCC1O2)Cc1cc2c(c(=O)o1)C=C1CCCCC1O2 (stereo not drawn) [Compound 33, 1,8-Di-{3-[1H-5a,6,7,8,9-pentahydro-1-oxopyrano[4,3-b][I]benzopyranyl]}-2,7-octanedione] | 57 | 76 |  | 
20 | CCCCC(=O)OCC(C)[C@H]1CCC2C(O)c3c(cc(-c4ccc(OC)c(OC)c4)oc3=O)O[C@H]2C1 (stereo partly drawn) [Compound 37, (5aS,7S)-7-[2-(1-Pentanoyloxypropyl)]-10-hydroxy-3-(3,4-dimethoxyphenyl)-1H-5a,6,7,8,9,9a,10-heptahydro-1-oxopyrano[4,3-b][1]benzopyran] | 36.8 | 52.4 |  | 
21 | tri(deacetyl)pyripyropene A [Compound 22] |  |  |  | inhibition of DNA synthesis in L1210 cells ([3]; 25 μM, 90 min + 30 min pulse): no significant effects; inhibition of DNA synthesis in L1210 cells [3, 5]: no effect; also recorded: ineffective; also recorded: fail to inhibit DNA synthesis
